{
  "source": "paper PMC10042540",
  "about": "“Targeting oncogenic KRasG13C with nucleotide-based covalent inhibitors” (eLife, 2023)",
  "key": {"SOS": {"test_system": "SOS", "assay": "Guanine nucleotide-exchange factor assay (mantdGDP fluorescence)", "type": "biochemical", "experimental": "SOS-catalysed nucleotide exchange was monitored at 25 °C in a FluoroMax-3 spectrofluorometer (excitation at 360 nm, emission at 440 nm) in 20 mM HEPES (pH 7.5), 100 mM NaCl, 2 mM MgCl2, and 1 mM TCEP. 5 µM KRas1-169 was mixed with 10 µM mantdGDP and subsequently with different concentrations of SOS (0.25 µM and 0.5 µM) (Figure 3A; Figure 3—figure supplement 1)."}, "[1]": {"test_system": "Ras pathway (pcRaf, pAkt, pErk, pS6)", "assay": "Electroporation into HeLa cells, western blot of downstream signalling", "type": "cell-based, human", "conditions": "electroporation of 50-300 µg protein", "experimental": "(§1) HeLa cells were obtained from the American Type Culture Collection (ATCC) and were cultured in DMEM medium (Gibco) supplemented with 10% fetal bovine serum (FBS) (PAN-Biotech) and 1% penicillin/streptomycin (Gibco). Cells were cultured in a humidified incubator at 37 °C in the presence of 5% CO2. The identity of the cells was validated by STR profiling and the cells were tested negative for mycoplasma contamination.\n(§2) Electroporation of full-length KRas constructs (KRasWT, KRasG13C, KRasG13C-edaGDP, KRasG13C:acetyledaGDP and KRasG13C-edaGppCp) was performed based on the protocol described by [Alex et al., 2019] using the Neon Transfection System Kit (Thermo Fisher). For electroporation, 3 million cells per experiment were harvested by trypsinization, washed with PBS, and resuspended in 85 µL of the electroporation buffer R (Thermo Fisher). Increasing amounts of recombinant protein samples for each construct (0, 50, 100, 200 and 300 µg) were diluted 1:1 in buffer R followed by the addition of 30 µL of this protein master mix to the cell suspension. This cellular slurry was loaded into a […] Neon Pipette Tip (Thermo Fisher) and electroporated with 2x35 ms pulses at 1000 V. After electroporation, the cells were washed twice with PBS (15 mL) to remove non-internalized extracellular protein and the cell pellet was resuspended in 2 mL complete growth media. Cells were transferred into six-well tissue culture plates (Sarstedt) and incubated for 24 hr at 37 °C and 5% CO2 in a humidified incubator for recovery before being processed for western blotting analysis.\nAfter recovery of the electroporation, cells were washed twice with ice-cold PBS and lysed in 100 µL of phosphatase and protease inhibitor containing RIPA buffer (Cell Signaling Technology). Cells were incubated on ice for 30 min and then harvested by scraping followed by centrifugation at 14,000 rpm for 10 min at 4 °C. Protein concentrations were determined using the Pierce BCA protein assay (Thermo) following the manufacturer’s recommended procedure. Equal amounts of protein (10 µg) were analyzed by SDS-PAGE and transferred to Immobilon-FL PVDF membranes (Merck Millipore) using Pierce 1-step transfer buffer (Thermo) and the Pierce Power Blotter (Thermo). Membranes were washed with ddH2O for 5 min, blocked with OdysseyBlocking Buffer TBS (Li-Cor) for 1 hr at room temperature and then incubated with primary antibodies diluted in OdysseyBlocking Buffer TBS overnight at 4 °C with gentle agitation. […] Quantification of protein levels from western blots was performed using Empiria Studio (Li-Cor) (Figure 3B, C, Figure 3—figure supplements 6–9)."}, "tAkt1": {"test_system": "tAkt1", "assay": "Electroporation into HeLa cells, western blot quantification", "type": "cell-based, human", "conditions": "for tAkt mean fold change: mean of cell lysates", "experimental": "as §1, §2\n(§3) After recovery of the electroporation, cells were washed twice with ice-cold PBS and lysed in 100 µL of phosphatase and protease inhibitor containing RIPA buffer (Cell Signaling Technology). Cells were incubated on ice for 30 min and then harvested by scraping followed by centrifugation at 14,000 rpm for 10 min at 4 °C. Protein concentrations were determined using the Pierce BCA protein assay (Thermo) following the manufacturer’s recommended procedure. Equal amounts of protein (10 µg) were analyzed by SDS-PAGE and transferred to Immobilon-FL PVDF membranes (Merck Millipore) using Pierce 1-step transfer buffer (Thermo) and the Pierce Power Blotter (Thermo). Membranes were washed with ddH2O for 5 min, blocked with OdysseyBlocking Buffer TBS (Li-Cor) for 1 hr at room temperature and then incubated with primary antibodies diluted in OdysseyBlocking Buffer TBS overnight at 4 °C with gentle agitation. KRas (Sigma Aldrich, SAB1404011-100UG), pcRafS338 (CST, 9427), tAkt1 (CST, 2938), pAktS473 (CST, 4060), tErk (CST, 4696), pErkT202/Y204 (CST, 4370), pS6S235/236 (CST, 4858), and β-actin (CST, 4970/Sigma-Aldrich, A5441) antibodies were used to detect the individual proteins. After primary antibody incubation, membranes were washed three times with TBS-T (50 mM Tris, 150 mM NaCl, 0.05% Tween 20, pH 7.4) for 5 min before being incubated with secondary antibodies (anti-mouse IgG (H+L) (DyLight 680 Conjugate) (CST, 5470) / anti-rabbit IgG (H+L) (DyLight 800 4 X PEG Conjugate) (CST, 5151)) diluted in OdysseyBlocking Buffer TBS for 1 hr at room temperature with gentle agitation. After secondary antibody incubation, the membranes were washed three times for 5 min with TBS-T and then scanned using an OdysseyCLx imaging system (Li-Cor). Quantification of protein levels from western blots was performed using Empiria Studio (Li-Cor) (Figure 3B, C, Figure 3—figure supplements 6–9)."}, "pErkT202/Y204": {"test_system": "pErkT202/Y204", "assay": "Electroporation into HeLa cells, western blot quantification", "type": "cell-based, human", "conditions": "for pErk mean fold change: mean of cell lysates", "experimental": "as §1, §2, §3"}, "[2]": {"test_system": "GST-tagged cRafRBD (amino acids 51–131)", "assay": "Effector binding (pull-down experiments)", "conditions": "in the presence of GppNHp alone or in combination with SOS", "experimental": "Pull-down experiments were performed in 20 mM HEPES pH 7.5, 50 mM NaCl and 2 mM MgCl2. […] Afterwards, 50 µL glutathione magnetic beads were added to each sample for 30 min. After washing the beads with 500 µL buffer, the beads were settled with a magnet and the supernatant was carefully removed. The beads were resuspended in 50 µL of 4xSDS-loading buffer and visualized via SDS-PAGE (Figure 3—figure supplement 3)."}, "[3]": {"test_system": "farnesyltransferase (FTase)", "assay": "In vitro farnesylation", "type": "biochemical", "conditions": "full-length protein, FPP, ESI-MS", "experimental": "50 µM of full-length KRas protein was mixed with 250 µM farnesyl pyrophosphate (FPP) and 10 µM farnesyltransferase (FTase). After incubation at room temperature for 1 hr the mixture was centrifugated at 14,000 rpm for 10 min at 4 °C and analyzed via ESI-MS (Figure 3—figure supplement 4)."}},
  "data": [
    {"substance": "KRasG13C-edaGDP: KRasG13C covalently locked with edaGDP at Cys13", "values": [
      {"measurement": "SOS-catalysed nucleotide exchange", "setting": "SOS; 5 µM KRas1-169, 10 µM mantdGDP, 0.25 or 0.5 µM SOS", "result": "unable to do so"},
      {"measurement": "intrinsic nucleotide exchange rate", "setting": "SOS; absence of SOS", "result": "abrogated"},
      {"measurement": "downstream signalling (pcRaf, pAkt, pErk, pS6)", "setting": "[1]", "result": "unable to induce these effects"},
      {"measurement": "tAkt fold change", "setting": "tAkt1; 50 µg, Cell lysate 1", "result": 0.65},
      {"measurement": "tAkt fold change", "setting": "tAkt1; 50 µg, Cell lysate 2", "result": 1.23},
      {"measurement": "tAkt fold change", "setting": "tAkt1; 50 µg, Cell lysate 3", "result": 1.06},
      {"measurement": "tAkt mean fold change", "setting": "tAkt1; 50 µg", "result": 0.98},
      {"measurement": "tAkt fold change", "setting": "tAkt1; 100 µg, Cell lysate 1", "result": 0.92},
      {"measurement": "tAkt fold change", "setting": "tAkt1; 100 µg, Cell lysate 2", "result": 1.65},
      {"measurement": "tAkt fold change", "setting": "tAkt1; 100 µg, Cell lysate 3", "result": 0.97},
      {"measurement": "tAkt mean fold change", "setting": "tAkt1; 100 µg", "result": 1.18},
      {"measurement": "tAkt fold change", "setting": "tAkt1; 200 µg, Cell lysate 1", "result": 1.06},
      {"measurement": "tAkt fold change", "setting": "tAkt1; 200 µg, Cell lysate 2", "result": 1.22},
      {"measurement": "tAkt fold change", "setting": "tAkt1; 200 µg, Cell lysate 3", "result": 0.78},
      {"measurement": "tAkt mean fold change", "setting": "tAkt1; 200 µg", "result": 1.02},
      {"measurement": "tAkt fold change", "setting": "tAkt1; 300 µg, Cell lysate 1", "result": 0.92},
      {"measurement": "tAkt fold change", "setting": "tAkt1; 300 µg, Cell lysate 2", "result": 0.97},
      {"measurement": "tAkt fold change", "setting": "tAkt1; 300 µg, Cell lysate 3", "result": 0.68},
      {"measurement": "tAkt mean fold change", "setting": "tAkt1; 300 µg", "result": 0.86},
      {"measurement": "pErk fold change", "setting": "pErkT202/Y204; 50 µg, Cell lysate 1", "result": 0.82},
      {"measurement": "pErk fold change", "setting": "pErkT202/Y204; 50 µg, Cell lysate 2", "result": 0.70},
      {"measurement": "pErk fold change", "setting": "pErkT202/Y204; 50 µg, Cell lysate 3", "result": 0.80},
      {"measurement": "pErk mean fold change", "setting": "pErkT202/Y204; 50 µg", "result": 0.77},
      {"measurement": "pErk fold change", "setting": "pErkT202/Y204; 100 µg, Cell lysate 1", "result": 1.10},
      {"measurement": "pErk fold change", "setting": "pErkT202/Y204; 100 µg, Cell lysate 2", "result": 0.77},
      {"measurement": "pErk fold change", "setting": "pErkT202/Y204; 100 µg, Cell lysate 3", "result": 0.86},
      {"measurement": "pErk mean fold change", "setting": "pErkT202/Y204; 100 µg", "result": 0.91},
      {"measurement": "pErk fold change", "setting": "pErkT202/Y204; 200 µg, Cell lysate 1", "result": 2.08},
      {"measurement": "pErk fold change", "setting": "pErkT202/Y204; 200 µg, Cell lysate 2", "result": 0.84},
      {"measurement": "pErk fold change", "setting": "pErkT202/Y204; 200 µg, Cell lysate 3", "result": 1.10},
      {"measurement": "pErk mean fold change", "setting": "pErkT202/Y204; 200 µg", "result": 1.34},
      {"measurement": "pErk fold change", "setting": "pErkT202/Y204; 300 µg, Cell lysate 1", "result": 2.38},
      {"measurement": "pErk fold change", "setting": "pErkT202/Y204; 300 µg, Cell lysate 2", "result": 0.86},
      {"measurement": "pErk fold change", "setting": "pErkT202/Y204; 300 µg, Cell lysate 3", "result": 1.58},
      {"measurement": "pErk mean fold change", "setting": "pErkT202/Y204; 300 µg", "result": 1.61},
      {"measurement": "binding to RafRBD (pull-down)", "setting": "[2]", "result": "neither in the presence of GppNHp nor of additional SOS able to bind to the RafRBD"},
      {"measurement": "in vitro farnesylation", "setting": "[3]", "result": "fully farnesylated"}
    ]}
  ]
}
